This note sets out measurements from ChEMBL document CHEMBL5728939, “Myocyte enhancer factor 2 (MEF2) modulators” (2022).

For orientation: IC50 means the concentration at which inhibition is half-maximal.

The target in test [1] is Histone deacetylase 4/Myocyte-specific enhancer factor 2D (Homo sapiens, UniProt P56524+Q14814). The test is described as follows: Inhibitory Effects of the Compounds on MEF2D and HDAC4 Protein Interactions: Detection of MEF2D and HDAC4 interactions. In this mammalian two-hybrid assay, HDAC4 and MEF2D proteins were used. […] Human epithelial carcinoma cells (HeLa) were co-transfected with the two DNA constructs (GAL4-MEF2D and HDAC4-VP16) and a reporter plasmid (Gal4Luc). […] MEF2D and HDAC4 protein interactions were detected as a result of the GAL4-MEF2D and HDAC4-VP16 protein complex binding a DNA promoter on the reporter plasmid (Gal4Luc) and driving cellular expression of a luciferase gene. The measured luciferase protein signal was proportional to the amount of MEF2D and HDAC4 protein interactions occurring with the cell.
Histone deacetylase 4/Myocyte-specific enhancer factor 2D, sequence (P56524 whole entry, the tested form may be a part): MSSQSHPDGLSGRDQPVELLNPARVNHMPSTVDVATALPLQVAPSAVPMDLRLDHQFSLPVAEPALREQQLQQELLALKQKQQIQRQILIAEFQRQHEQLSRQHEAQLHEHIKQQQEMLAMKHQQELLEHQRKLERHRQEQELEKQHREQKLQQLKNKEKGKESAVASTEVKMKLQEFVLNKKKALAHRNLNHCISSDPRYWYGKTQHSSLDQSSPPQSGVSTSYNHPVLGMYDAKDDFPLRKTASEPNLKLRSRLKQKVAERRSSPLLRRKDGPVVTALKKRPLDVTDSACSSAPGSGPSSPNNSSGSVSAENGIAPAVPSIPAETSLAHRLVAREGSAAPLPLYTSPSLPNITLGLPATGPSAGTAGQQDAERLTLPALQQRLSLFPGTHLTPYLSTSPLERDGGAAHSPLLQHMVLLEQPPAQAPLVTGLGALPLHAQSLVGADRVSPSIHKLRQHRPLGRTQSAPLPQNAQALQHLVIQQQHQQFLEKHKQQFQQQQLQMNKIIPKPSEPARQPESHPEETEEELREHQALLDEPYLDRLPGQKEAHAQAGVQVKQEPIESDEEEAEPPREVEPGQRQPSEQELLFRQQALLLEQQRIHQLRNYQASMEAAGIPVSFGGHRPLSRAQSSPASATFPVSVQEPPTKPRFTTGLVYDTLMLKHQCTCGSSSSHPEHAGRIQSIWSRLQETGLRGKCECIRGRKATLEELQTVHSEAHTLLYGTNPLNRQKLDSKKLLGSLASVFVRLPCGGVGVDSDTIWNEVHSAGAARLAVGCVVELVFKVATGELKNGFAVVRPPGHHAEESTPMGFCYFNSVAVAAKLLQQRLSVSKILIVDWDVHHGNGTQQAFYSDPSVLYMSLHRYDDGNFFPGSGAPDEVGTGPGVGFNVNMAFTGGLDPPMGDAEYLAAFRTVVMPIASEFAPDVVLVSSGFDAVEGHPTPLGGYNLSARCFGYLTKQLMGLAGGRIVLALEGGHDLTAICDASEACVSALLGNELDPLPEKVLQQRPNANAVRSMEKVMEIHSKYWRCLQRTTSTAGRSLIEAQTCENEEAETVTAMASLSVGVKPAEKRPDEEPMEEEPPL
Histone deacetylase 4/Myocyte-specific enhancer factor 2D, sequence (Q14814 whole entry, the tested form may be a part): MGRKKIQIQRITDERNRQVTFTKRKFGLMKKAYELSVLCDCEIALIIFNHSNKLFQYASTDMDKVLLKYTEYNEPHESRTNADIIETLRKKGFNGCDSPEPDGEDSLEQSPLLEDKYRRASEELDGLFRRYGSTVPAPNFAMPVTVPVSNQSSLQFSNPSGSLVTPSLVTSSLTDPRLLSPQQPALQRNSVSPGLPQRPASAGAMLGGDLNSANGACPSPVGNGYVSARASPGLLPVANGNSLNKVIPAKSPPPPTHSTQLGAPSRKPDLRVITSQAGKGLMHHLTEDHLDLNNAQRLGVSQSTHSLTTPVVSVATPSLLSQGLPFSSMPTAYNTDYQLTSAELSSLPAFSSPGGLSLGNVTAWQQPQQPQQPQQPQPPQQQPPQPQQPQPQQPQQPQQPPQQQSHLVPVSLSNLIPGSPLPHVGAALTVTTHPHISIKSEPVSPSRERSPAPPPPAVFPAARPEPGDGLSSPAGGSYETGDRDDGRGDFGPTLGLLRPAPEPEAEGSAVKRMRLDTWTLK

Test [2] addresses Histone acetyltransferase p300/Myocyte-specific enhancer factor 2D (Homo sapiens, UniProt Q09472+Q14814). The test is described as follows: Inhibitory Effects of the Compounds on MEF2D and P300 Protein Interactions: Detection of MEF2D and P300 interactions. The same system that was used in Example 19 is used in here to detect MEF2D and P300 interactions. In this assay, two separate DNA constructs were made with MEF2D fused with the GAL4 DNA binding domain (GAL4-MEF2D) and P300 fused with the viral transactivator VP-16 […] epithelial carcinoma cells (HeLa) were co-transfected with the two DNA constructs (GAL4-MEF2D and P300-VP16) and a reporter plasmid (Gal4Luc). […] MEF2D and P300 protein interactions were detected as a result of the GAL4-MEF2D and P300-VP16 protein complex binding a DNA promoter on the reporter plasmid (Gal4Luc) and driving cellular expression of a luciferase gene. The measured luciferase protein signal was proportional to the amount of MEF2D and P300 protein interactions occurring with the cell.

Histone acetyltransferase p300/Myocyte-specific enhancer factor 2D, sequence (Q09472 whole entry, the tested form may be a part): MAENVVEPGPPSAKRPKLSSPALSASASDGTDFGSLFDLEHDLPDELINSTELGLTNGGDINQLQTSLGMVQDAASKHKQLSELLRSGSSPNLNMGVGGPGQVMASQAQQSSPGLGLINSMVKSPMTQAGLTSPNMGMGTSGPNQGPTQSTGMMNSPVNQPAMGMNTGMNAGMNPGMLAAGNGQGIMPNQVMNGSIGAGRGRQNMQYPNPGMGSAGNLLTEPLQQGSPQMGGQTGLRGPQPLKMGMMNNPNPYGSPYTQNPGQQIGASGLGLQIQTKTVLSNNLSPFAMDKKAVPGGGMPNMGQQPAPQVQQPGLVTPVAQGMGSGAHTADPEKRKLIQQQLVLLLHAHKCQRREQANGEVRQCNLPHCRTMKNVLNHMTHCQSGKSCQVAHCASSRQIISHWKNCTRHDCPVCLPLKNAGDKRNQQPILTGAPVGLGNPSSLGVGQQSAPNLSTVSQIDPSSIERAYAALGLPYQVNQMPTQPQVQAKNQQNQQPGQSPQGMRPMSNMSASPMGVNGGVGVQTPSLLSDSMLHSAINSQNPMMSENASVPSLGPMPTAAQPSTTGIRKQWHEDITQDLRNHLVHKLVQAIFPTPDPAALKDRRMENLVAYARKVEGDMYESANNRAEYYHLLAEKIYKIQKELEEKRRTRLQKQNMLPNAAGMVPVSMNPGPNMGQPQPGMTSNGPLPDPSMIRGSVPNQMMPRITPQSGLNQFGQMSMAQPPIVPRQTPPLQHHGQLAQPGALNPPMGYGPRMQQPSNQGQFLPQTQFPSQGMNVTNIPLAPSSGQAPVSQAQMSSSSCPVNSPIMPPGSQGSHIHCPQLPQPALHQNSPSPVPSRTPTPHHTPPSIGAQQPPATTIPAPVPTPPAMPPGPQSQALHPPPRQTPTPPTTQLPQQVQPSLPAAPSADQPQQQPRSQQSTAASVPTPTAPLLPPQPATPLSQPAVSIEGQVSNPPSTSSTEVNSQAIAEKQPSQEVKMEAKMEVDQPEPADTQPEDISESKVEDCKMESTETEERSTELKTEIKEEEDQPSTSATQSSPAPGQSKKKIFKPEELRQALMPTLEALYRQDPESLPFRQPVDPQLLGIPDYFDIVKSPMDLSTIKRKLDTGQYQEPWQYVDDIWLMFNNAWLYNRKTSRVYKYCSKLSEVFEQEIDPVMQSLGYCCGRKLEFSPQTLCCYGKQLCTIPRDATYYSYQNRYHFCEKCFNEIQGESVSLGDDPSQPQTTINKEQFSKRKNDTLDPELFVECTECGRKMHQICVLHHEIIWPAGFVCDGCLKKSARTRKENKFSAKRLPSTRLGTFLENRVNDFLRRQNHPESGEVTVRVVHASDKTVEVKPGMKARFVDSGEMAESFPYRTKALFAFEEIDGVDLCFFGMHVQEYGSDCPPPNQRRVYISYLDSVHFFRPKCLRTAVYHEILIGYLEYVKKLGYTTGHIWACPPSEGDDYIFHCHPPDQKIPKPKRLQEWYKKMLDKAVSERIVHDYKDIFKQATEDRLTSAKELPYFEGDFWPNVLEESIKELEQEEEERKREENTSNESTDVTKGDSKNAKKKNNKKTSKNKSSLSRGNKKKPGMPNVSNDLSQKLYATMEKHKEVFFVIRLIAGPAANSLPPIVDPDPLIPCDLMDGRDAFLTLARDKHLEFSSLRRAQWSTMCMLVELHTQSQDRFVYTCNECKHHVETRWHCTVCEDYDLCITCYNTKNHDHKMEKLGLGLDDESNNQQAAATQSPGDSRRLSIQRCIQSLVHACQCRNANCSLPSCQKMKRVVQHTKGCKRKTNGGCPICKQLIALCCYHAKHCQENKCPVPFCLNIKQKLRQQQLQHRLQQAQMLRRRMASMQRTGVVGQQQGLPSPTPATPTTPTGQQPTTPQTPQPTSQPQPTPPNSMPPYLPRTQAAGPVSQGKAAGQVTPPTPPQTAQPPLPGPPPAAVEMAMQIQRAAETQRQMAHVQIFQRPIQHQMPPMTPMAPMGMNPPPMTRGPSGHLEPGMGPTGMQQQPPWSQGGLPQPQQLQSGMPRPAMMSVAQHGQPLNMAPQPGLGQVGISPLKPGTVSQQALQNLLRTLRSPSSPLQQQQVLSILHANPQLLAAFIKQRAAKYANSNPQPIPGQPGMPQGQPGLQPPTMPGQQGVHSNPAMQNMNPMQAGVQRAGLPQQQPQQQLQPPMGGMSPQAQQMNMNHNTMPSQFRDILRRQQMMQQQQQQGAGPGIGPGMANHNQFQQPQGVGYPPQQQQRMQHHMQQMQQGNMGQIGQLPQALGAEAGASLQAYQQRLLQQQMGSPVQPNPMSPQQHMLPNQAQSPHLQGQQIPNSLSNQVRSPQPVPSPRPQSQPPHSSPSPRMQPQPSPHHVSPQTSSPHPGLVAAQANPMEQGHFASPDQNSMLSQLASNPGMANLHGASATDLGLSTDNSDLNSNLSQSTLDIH
Histone acetyltransferase p300/Myocyte-specific enhancer factor 2D, sequence (Q14814 whole entry, the tested form may be a part): as the sequence (Q14814 whole entry, the tested form may be a part) above

With `Nc1ccccc1NC(=O)CCCCC(NC(=O)c1ccccc1)C(=O)Nc1ccccc1` (stereo unspecified), the IC50 in test [1] is 800 nM; in test [2], 700 nM.
With `Nc1ccccc1NC(=O)/C=C/c1cccc(CNc2ccc3ccccc3c2)c1`, the IC50 in test [1] is 7270 nM; in test [2], 720 nM.
Take `Cc1[nH]c2ccccc2c1CCNCc1cccc(/C=C/C(=O)Nc2ccccc2N)c1`: the IC50 was determined as 510 nM in test [1] and 270 nM in test [2].
